According to patent publication US8574323B2, “Marker compounds for liquid hydrocarbons and other fuels and oils” (Angus Chemical Company, priority 2010, dated 2013):

Columns and labels:
[1] = Laundering stability and extractability of the marker in xylene solution (GC against un-laundered reference); format: physicochemical; conditions: 8 hours; for marker: relative to control = 100
Description: (§1) The stability and extractability of the markers was performed using xylene solutions containing between 100-1000 ppm makers and an equivalent amount of squalene internal reference standard using the following protocols:
Mix 95 parts marked xylenes with 5 parts laundering agent in a 100 mL vial. Mix gently for 8 hours using a magnetic stir bar. Stop mixing and remove a xylene solution aliquot. Analyze by GC and compare marker response to reference (un-laundered) sample.
(§2) Laundering Agents: • 1) 5% sulfuric acid • 2) 98% sulfuric acid • 3) 5% NaOH solution • 4) 50% NaOH solution • 5) Activated charcoal (use 98 parts xylenes solution to 2 parts charcoal) • 6) 5% bleach To test for metal adsorptivity, 100 mL marked xylene tests solution is treated with 5 grams metal shavings at room temperature for 8 hours. GC analysis is again used to determine any loss of marker to the metal surface.

[2] = Metal adsorptivity of the marker from xylene solution (GC); format: physicochemical; conditions: Metals: 5 grams metal shavings per 100 mL, room temperature, 8 hours
Description: as §1, §2

% change ([1]; 2% charcoal (activated)): −6%
marker ([1]; 2% charcoal (activated)): 94
% change ([1]; 5% H2SO4 laundering): −1.75%
marker ([1]; 5% H2SO4 laundering): 98.25
% change ([1]; 5% NaOH laundering): −2.79%
marker ([1]; 5% NaOH laundering): 102.79
% change ([1]; 5% bleach laundering): −65%
marker ([1]; 5% bleach laundering): 35
% change ([1]; 50% NaOH laundering): −1.74%
marker ([1]; 50% NaOH laundering): 98.26
% change ([1]; 98% H2SO4 laundering): 0.47%
marker ([1]; 98% H2SO4 laundering): 100.47
% change [2]: +4%
marker ([2]; relative to control = 100): 104
Structure (SMILES): Cc1ccc(C)c(Cc2ccc(-c3ccc(Cc4cc(C)ccc4C)cc3)cc2)c1 [4,4′-bis(2,5-dimethylbenzyl)-1,1′-biphenyl]
